Each compound was assayed on Rattus norvegicus (assay: Effective oral dose of compound for Post-coital antifertility activity was determined in rats).
Type: functional
Set-up: unit not given here

Compared with Fc1ccccc1C(=C(c1ccccc1)c1ccccc1)C(F)(F)F, FC(F)(F)C(=C(c1ccccc1)c1ccccc1)c1ccccc1 is higher in pED50: 1.204 for the first, 2.079 for the second.

Going from Fc1ccc(/C(=C(/c2ccccc2)C(F)(F)F)c2ccccc2)cc1 to Fc1ccc(C(=C(c2ccccc2)c2ccccc2)C(F)(F)F)cc1, the pED50 falls from 2.491 to 1.602.

FC(F)(F)C(=C(c1ccccc1)c1ccccc1)c1cccc(C(F)(F)F)c1 and FC(F)(F)C(=C(c1ccccc1)c1ccccc1)c1ccc(C(F)(F)F)cc1 are the same in pED50: 1.477 for the first, 1.477 for the second.

Compared with FC(F)(F)C(=C(c1ccccc1)c1ccccc1)c1cccs1, Fc1cccc(C(=C(c2ccccc2)c2ccccc2)C(F)(F)F)c1 is lower in pED50: 2.914 for the first, 1.204 for the second.

Going from FC(F)(F)C(F)(F)C(=C(c1ccccc1)c1ccccc1)c1ccccc1 to FC(F)(F)C(=C(c1ccccc1)c1ccccc1)c1ccc(Cl)cc1, the pED50 falls from 2.301 to 1.477.

Going from COc1ccc(/C(=C(/c2ccccc2)C(F)(F)F)c2ccccc2)cc1 to COc1ccc(C(=C(c2ccccc2)c2ccccc2)C(F)(F)F)cc1, the pED50 rises from 1.114 to 2.079.

Compared with FC(F)(F)C(c1ccccc1)C(c1ccccc1)c1ccccc1 (stereo not drawn), Cc1ccc(C(=C(c2ccccc2)c2ccccc2)C(F)(F)F)cc1 is lower in pED50: 2.991 for the first, 2.681 for the second.

Compared with COc1ccc(/C(=C(\c2ccccc2)C(F)(F)F)c2ccccc2)cc1, COc1ccc(/C(=C(/c2ccc(F)cc2)C(F)(F)F)c2ccccc2)cc1 is lower in pED50: 1.602 for the first, 1.301 for the second.

Compared with COc1ccc(C(=C(c2ccccc2)C(F)(F)F)c2ccc(OC)cc2)cc1, FC(F)(F)C(=C(c1ccccc1)c1ccccc1)c1ccc(C(F)(C(F)(F)F)C(F)(F)F)cc1 is lower in pED50: 2.079 for the first, 1.204 for the second.

Reference: ChEMBL document CHEMBL1149218, “Predicting pharmacophore signals for post-coital antifertility activity of 1-trifluoromethyl-1,2,2-triphenylethylene derivatives: a statistical approximation using E-state index” (2004)
